Active and inactive are the calls of the source.

The source of these data is ChEMBL document CHEMBL1201862, “PubChem BioAssay data set” (2004).

Test [1] can be described thus: Fluorescence polarization-based biochemical high throughput dose response assay for activators of the Protein Kinase A-R1A (PKA-R1A) complex. [Related pubchem assays (depositor defined):AID504704, AID504707, AID504799, AID504800]. On the technique in general: In fluorescence polarisation assays a small probe gives low polarisation when free and higher when bound to something large.

A short description of test [2]: Fluorescence polarization-based biochemical high throughput dose response assay for activators of the Protein Kinase A-R2B (PKA-R2B) complex. [Related pubchem assays (depositor defined):AID504700, AID504704, AID504796, AID504797].
A further test deals with T1, CAAX prenyl protease 2 (Saccharomyces cerevisiae S288c, UniProt Q03530).
T1 sequence (Q03530 whole entry): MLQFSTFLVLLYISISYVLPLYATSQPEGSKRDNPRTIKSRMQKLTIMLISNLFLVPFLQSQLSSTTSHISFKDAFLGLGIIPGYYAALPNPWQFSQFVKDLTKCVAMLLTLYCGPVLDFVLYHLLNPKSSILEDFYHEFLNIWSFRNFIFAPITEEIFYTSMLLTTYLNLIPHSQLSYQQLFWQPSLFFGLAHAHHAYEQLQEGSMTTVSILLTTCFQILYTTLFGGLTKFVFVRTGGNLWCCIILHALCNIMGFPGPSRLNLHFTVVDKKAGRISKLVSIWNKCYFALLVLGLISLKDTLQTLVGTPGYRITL
The format is biochemical.

A further test addresses CAAX prenyl protease 1 (Saccharomyces cerevisiae S288c, UniProt P47154). Nature of the test: yeast CAAX protease Ste24 inhibition – biochemical, S. cerevisiae, plate reader, cherry-pick, dose response (AID 488815).
A further test deals with Trypsin (Sus scrofa, UniProt P00761). Nature of the test: trypsin protease activity blockade – biochemical, quenched peptide fluorescence, cherry-pick, selectivity assay for Rce1 protease inhibitor project, dose response (AID 488789).
In test [3] the target is Lysine-specific demethylase 4C (Homo sapiens, UniProt Q9H3R0). Nature of the test: inhibition of JMJD2C H3K9me3 demethylation – biochemical, DELFIA europium, cherry-picked samples, dose response (AID 488835). Format: functional.
Test [4] addresses Lysine-specific demethylase 4A (Homo sapiens, UniProt O75164). Nature of the test: inhibition of JMJD2A H3K9me3 demethylation – biochemical, DELFIA europium, cherry-picked samples, selectivity assay for GASC-1 inhibitor project, dose response (AID 488840).
In test [5] the test system is A-375. Nature of the test: proliferation inhibition in MITF-low A375 cells – cell-based, cherry-pick samples, set 2, counter-screen for MITF modulator project, dose response (AID 540335). The following applies: Homo sapiens. The format is functional. On the technique in general: Counterscreens check selectivity or assay interference.
Test [6] relates to A-375. Nature of the test: MITF: Counter assay: A375 proliferation Measured in Cell-Based System Using Plate Reader - 2084-03_Inhibitor_Dose_DryPowder_Activity. [Related pubchem assays (depositor defined):AID488944]. Format: functional. The following applies: Homo sapiens.
Test [7] deals with T2, Tyrosine-protein phosphatase non-receptor type 7 (Homo sapiens, UniProt P35236).
T2 sequence (P35236 whole entry): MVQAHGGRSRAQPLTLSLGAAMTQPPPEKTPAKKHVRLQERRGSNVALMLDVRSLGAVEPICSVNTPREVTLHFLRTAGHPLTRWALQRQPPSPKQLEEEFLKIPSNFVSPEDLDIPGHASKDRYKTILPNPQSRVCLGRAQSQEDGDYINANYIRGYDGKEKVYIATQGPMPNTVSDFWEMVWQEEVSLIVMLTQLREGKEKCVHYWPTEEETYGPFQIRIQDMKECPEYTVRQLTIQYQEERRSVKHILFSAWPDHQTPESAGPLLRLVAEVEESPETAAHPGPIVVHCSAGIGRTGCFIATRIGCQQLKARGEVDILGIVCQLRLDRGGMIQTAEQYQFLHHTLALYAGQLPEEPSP
The format is functional.

Test [8] deals with T3, Heat shock factor protein 1 (Mus musculus, UniProt P38532).
T3 sequence (P38532 whole entry): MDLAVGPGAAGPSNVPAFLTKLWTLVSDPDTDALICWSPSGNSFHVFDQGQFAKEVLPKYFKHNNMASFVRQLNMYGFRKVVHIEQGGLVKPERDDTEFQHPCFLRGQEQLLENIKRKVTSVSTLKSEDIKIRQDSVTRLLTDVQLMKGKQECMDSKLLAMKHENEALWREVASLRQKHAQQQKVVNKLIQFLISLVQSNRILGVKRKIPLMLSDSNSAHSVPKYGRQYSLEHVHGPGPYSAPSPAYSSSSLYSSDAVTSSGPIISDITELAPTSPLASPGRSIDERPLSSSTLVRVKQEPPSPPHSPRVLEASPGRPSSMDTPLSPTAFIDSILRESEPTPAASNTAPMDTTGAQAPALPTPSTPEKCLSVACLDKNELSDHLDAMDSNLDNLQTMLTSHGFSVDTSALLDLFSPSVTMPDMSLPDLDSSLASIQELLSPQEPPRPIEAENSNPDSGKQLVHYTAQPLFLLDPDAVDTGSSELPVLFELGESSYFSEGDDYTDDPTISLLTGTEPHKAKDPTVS
Nature of the test: enhancement of HSF1-driven luciferase signal – cell-based, NIH3T3, luminescence, dose retest, confirmation (AID 435004).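 Note: stress induced by proteasome inhibitor MG132 added 30 min after compound; luciferase reporter driven by HSF1 response element in NIH3T3 cells; actives raise luminescence as potentiators of the MG132 stress response.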 The format is functional.

Test [9] concerns the target T4, Tyrosine-protein phosphatase non-receptor type 22 (Homo sapiens, UniProt Q9Y2R2). The format is functional.
Test [10] deals with T4, Tyrosine-protein phosphatase non-receptor type 22. The format is functional. The source holds these as a separate data set.
In test [11] the target is T5, Delta-type opioid receptor (Homo sapiens, UniProt P41143). Nature of the test: HTS Image-Based Screen for Agonists of the DOR Receptor. [Related pubchem assays (depositor defined):AID1777, AID1786, AID2133]. Format: functional.
T5 sequence (P41143 whole entry): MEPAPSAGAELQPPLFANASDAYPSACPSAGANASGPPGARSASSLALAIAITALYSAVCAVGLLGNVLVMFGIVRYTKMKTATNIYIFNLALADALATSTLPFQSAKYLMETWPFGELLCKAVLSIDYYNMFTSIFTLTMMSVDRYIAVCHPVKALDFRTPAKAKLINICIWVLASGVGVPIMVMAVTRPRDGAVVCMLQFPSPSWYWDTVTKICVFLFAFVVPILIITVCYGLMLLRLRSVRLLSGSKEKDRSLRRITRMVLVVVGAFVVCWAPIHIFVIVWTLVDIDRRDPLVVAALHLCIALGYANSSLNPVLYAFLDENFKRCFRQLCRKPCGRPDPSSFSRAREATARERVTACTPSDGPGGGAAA
A further test addresses Mu-type opioid receptor (Homo sapiens, UniProt P35372). Nature of the test: HTS Image-Based Screen for Agonists of the MOR Receptor. [Related pubchem assays (depositor defined):AID1777, AID1785, AID1786, AID2133]. Format: functional.
Test [12] deals with T5, Delta-type opioid receptor. Nature of the test: HTS Image-Based Screen for Antagonists of the DOR Receptor. [Related pubchem assays (depositor defined):AID1777, AID1785, AID1786, AID2133]. The format is functional.
Test [13] concerns the target T6, Kappa-type opioid receptor (Homo sapiens, UniProt P41145). Format: functional.
Test [14] has as its target T6, Kappa-type opioid receptor. Format: functional. This is another data set of the same source.
The subject of test [15] is HEK293. Nature of the test: NOD2 signaling inhibitors in MDP-stimulated cells, cell-based, uHTS, luminescence (AID 2001). Format: functional. As to conditions: Homo sapiens.
The subject of test [16] is HEK293. Nature of the test: cells. The format is functional, cell-based. The following applies: Homo sapiens.
The target in test [17] is Nucleotide-binding oligomerization domain-containing protein 2 (Homo sapiens, UniProt Q9HC29). Nature of the test: inhibition of NOD2-driven NF-kB reporter – cell-based, luminescence, uHTS, HEK293 (AID 1566). Format: functional.
Sequence of Nucleotide-binding oligomerization domain-containing protein 2 (Q9HC29 whole entry, the tested form may be a part): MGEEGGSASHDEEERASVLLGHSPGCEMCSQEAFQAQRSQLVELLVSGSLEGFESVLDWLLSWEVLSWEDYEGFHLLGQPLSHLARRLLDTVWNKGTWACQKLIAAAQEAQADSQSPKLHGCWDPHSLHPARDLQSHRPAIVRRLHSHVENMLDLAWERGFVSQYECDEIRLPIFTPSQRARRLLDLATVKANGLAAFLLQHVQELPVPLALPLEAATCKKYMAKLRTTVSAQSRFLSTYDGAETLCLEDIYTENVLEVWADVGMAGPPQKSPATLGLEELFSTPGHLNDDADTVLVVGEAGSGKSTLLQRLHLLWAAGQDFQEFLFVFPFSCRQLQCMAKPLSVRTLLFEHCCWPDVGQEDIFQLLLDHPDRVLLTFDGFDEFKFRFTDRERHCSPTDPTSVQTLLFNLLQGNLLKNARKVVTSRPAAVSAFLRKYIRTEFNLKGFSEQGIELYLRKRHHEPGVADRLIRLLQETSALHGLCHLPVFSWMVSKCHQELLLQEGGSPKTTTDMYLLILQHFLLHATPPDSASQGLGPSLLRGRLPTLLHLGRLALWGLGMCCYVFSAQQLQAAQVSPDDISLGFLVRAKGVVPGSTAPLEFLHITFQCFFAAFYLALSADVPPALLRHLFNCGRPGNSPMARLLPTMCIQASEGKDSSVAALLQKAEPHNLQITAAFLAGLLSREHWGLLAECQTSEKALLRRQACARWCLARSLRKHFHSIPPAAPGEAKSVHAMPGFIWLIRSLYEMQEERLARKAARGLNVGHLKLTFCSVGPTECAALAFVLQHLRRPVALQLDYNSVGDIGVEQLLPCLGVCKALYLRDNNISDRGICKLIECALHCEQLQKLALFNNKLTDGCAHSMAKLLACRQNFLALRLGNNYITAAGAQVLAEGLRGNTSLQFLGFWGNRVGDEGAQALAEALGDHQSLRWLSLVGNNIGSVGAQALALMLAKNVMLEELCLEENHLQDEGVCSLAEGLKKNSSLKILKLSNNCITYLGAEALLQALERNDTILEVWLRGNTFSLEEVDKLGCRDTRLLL
The target in test [18] is Glycogen synthase kinase-3 beta (Homo sapiens, UniProt P49841). Nature of the test: Inhibition of Human GSK-3 beta Activity Measured in Biochemical System Using Microfluidics - 2063-05_Inhibitor_Dose_DryPowder_Activity. [Related pubchem assays (depositor defined):AID2709].
Sequence of Glycogen synthase kinase-3 beta (P49841 whole entry): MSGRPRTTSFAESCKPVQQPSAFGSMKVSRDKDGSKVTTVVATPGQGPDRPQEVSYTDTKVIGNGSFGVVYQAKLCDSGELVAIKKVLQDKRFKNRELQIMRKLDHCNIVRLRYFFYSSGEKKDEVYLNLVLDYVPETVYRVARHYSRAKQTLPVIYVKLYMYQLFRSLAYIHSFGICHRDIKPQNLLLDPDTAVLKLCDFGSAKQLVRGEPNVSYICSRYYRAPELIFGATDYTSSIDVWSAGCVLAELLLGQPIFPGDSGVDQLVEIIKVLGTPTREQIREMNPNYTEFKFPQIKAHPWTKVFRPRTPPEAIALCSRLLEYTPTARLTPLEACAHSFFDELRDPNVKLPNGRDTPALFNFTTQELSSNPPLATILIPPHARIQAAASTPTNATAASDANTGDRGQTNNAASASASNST
Test [19] concerns HEK293. Nature of the test: cells. Format: functional, cell-based. The following applies: Homo sapiens. This is another data set of the same source.
The subject of test [20] is HEK293. Nature of the test: cells. The following applies: Homo sapiens. The format is functional, cell-based. This is another data set of the same source.
The subject of test [21] is HEK293. Nature of the test: inhibition of NOD1-driven NF-kB reporter – cell-based, luminescence, uHTS, primary screen (AID 1578). The format is functional. As to conditions: Homo sapiens.
Test [22] addresses UDP-galactopyranose mutase (Mycobacterium tuberculosis, UniProt P9WIQ1). Nature of the test: Inhibitors of Mycobacterium tuberculosis UDP-galactopyranose mutase (UGM) enzyme Measured in Biochemical System Using Plate Reader - 2105-02_Inhibitor_Dose_CherryPick_Activity. [Related pubchem assays (depositor defined):AID504439].
Test [23] deals with T7, Cannabinoid receptor 2 (Homo sapiens, UniProt P34972). Nature of the test: SAR analysis of agonists of the Cannabinoid Receptor 2 using an Image-Based Assay - Set 2. [Related pubchem assays (depositor defined):AID1961, AID1965]. Format: functional.
T7 sequence (P34972 whole entry): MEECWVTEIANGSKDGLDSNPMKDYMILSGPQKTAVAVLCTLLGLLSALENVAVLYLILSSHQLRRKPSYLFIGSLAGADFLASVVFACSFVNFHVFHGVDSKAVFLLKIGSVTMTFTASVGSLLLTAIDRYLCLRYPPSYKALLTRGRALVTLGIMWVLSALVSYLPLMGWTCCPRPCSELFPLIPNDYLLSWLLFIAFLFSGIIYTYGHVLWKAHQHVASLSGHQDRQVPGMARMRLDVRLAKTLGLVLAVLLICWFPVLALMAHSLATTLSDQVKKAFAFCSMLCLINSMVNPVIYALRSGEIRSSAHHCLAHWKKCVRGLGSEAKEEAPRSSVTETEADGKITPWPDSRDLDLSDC
Test [24] concerns the target T8, G-protein coupled receptor 55 (Homo sapiens, UniProt Q9Y2T6). Nature of the test: selective activators of receptor GPR55 – imaging, U2OS cells, beta-arrestin-GFP redistribution, primary screen (AID 1961). Format: functional.
Another test concerns the target Cannabinoid receptor 1 (Homo sapiens, UniProt P21554). Nature of the test: SAR analysis of antagonists of the Cannabinoid Receptor 1 using an Image-Based Assay. [Related pubchem assays (depositor defined):AID1961, AID1965]. Format: functional.
Test [25] addresses T8, G-protein coupled receptor 55. Nature of the test: SAR analysis of selective Agonists of GPR55 using an Image-Based Assay. [Related pubchem assays (depositor defined):AID1961, AID1965]. The format is functional.
Test [26] concerns the target T7, Cannabinoid receptor 2. Nature of the test: SAR analysis of antagonists of the Cannabinoid Receptor 2 using an Image-Based Assay - Set 2. [Related pubchem assays (depositor defined):AID1961, AID1965]. Format: functional.
The nature of test [27]: Luminescence Cell-Based Dose Response Follow up to Identify Inhibitors of Platelet Dense Granule Release. [Related pubchem assays (depositor defined):AID1663, AID1678, AID1889, AID2519]. The format is functional.
The nature of test [28]: blockers of SFLLRN-triggered platelet ATP secretion – cell-based, human platelets, luminescence, dry powder, dose response (AID 493100). Format: functional.
In a further test the test system is Candida albicans. Nature of the test: Candida growth effect without fluconazole – C. albicans CaCi-2, dry powder, counter-screen for antifungal drug resistance project, dose response (AID 488802). The format is functional, organism-based.
In another test the test system is NIH3T3. Nature of the test: mammalian cell viability counter-check – Alamar Blue, fluconazole, dry powder, cytotoxicity control for antifungal drug resistance project, dose response (AID 488809). Format: functional, cell-based. As to conditions: Mus musculus. For orientation: The colour change of resazurin is a common sign of viable cells or microbes.

T4 sequence (Q9Y2R2 whole entry): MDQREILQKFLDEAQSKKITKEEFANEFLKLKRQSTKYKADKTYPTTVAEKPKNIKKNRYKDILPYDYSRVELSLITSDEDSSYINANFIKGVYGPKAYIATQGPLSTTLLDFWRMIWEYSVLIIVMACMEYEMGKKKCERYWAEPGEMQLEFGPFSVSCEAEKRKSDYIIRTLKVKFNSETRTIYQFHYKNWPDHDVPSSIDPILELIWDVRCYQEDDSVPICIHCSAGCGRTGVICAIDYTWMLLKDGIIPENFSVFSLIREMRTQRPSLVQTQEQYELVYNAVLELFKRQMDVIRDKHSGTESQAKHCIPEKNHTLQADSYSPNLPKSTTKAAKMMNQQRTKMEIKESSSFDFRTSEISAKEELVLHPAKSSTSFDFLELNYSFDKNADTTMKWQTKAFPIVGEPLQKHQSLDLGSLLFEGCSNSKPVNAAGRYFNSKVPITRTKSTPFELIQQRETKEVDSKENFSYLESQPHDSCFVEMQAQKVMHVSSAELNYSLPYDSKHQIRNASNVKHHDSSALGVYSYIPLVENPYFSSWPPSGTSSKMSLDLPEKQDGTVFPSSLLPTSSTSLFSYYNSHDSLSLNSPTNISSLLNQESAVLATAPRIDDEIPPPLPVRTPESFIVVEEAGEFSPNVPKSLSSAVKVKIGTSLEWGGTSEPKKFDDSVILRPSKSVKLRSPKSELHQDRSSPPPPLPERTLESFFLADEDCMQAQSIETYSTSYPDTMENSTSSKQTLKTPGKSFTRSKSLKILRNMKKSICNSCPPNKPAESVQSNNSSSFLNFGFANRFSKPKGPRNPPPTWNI
T6 sequence (P41145 whole entry): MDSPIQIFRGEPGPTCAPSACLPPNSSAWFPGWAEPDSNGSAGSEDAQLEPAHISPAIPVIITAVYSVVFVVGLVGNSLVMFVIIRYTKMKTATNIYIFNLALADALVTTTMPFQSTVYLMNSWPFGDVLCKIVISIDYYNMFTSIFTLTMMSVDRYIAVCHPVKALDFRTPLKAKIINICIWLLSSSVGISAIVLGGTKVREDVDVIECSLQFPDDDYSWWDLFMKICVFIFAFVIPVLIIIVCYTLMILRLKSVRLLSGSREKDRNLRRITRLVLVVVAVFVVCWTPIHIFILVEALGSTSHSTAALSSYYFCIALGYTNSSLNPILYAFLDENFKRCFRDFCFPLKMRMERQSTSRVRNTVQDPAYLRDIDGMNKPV
T8 sequence (Q9Y2T6 whole entry): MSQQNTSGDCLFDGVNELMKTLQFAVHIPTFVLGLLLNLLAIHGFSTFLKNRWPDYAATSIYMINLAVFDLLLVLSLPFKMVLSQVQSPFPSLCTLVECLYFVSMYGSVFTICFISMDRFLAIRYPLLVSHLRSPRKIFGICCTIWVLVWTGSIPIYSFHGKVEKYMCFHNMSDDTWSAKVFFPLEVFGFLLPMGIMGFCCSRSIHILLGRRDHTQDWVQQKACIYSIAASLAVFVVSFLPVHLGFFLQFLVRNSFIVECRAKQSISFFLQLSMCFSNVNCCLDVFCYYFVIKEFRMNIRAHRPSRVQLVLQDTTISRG
Sequence of UDP-galactopyranose mutase (P9WIQ1 whole entry): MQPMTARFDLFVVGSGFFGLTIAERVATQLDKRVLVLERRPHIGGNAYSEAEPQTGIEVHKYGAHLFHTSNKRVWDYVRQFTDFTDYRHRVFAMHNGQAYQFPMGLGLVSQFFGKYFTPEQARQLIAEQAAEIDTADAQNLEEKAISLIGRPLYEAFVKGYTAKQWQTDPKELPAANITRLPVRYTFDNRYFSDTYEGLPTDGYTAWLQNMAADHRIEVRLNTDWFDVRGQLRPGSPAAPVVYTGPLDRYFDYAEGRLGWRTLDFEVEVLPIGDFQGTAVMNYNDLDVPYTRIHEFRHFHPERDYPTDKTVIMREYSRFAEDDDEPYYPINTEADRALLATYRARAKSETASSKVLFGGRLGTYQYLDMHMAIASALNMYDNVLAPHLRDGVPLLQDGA
Sequence of CAAX prenyl protease 1 (P47154 whole entry): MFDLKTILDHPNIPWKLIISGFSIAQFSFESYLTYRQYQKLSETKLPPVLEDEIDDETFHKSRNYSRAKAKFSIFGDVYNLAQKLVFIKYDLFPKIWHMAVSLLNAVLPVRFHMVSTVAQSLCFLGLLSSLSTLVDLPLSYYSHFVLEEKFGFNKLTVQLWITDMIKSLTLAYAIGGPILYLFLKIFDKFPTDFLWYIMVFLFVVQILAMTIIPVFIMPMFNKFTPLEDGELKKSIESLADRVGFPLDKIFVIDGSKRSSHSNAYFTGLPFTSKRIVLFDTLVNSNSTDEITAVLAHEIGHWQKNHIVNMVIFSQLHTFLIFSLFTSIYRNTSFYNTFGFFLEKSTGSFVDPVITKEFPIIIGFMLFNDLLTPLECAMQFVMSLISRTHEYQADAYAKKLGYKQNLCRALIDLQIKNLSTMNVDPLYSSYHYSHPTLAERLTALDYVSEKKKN
Sequence of Mu-type opioid receptor (P35372 whole entry): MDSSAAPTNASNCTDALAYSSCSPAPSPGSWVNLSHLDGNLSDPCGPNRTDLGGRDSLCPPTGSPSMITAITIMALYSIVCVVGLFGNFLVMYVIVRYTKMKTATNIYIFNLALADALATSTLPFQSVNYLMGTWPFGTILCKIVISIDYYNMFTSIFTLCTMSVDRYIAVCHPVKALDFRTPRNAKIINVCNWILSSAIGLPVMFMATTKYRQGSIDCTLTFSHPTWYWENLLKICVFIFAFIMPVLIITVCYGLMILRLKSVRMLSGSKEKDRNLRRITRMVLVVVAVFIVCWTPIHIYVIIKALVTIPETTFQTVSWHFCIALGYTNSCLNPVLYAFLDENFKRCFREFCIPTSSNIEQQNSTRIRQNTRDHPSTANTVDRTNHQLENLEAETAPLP

With `CCOP1(=O)OCC2OC(n3cnc4c(N)ncnc43)C(O)C2O1` (stereo not given), the EC50 in test [1] is 2.68 µM (active); in test [2], 3.75 µM (active).

With `Cc1cc(C)n2cc(CSc3ncccc3C(=O)O)nc2n1`, the half-maximal activity concentration (AC50) on CAAX prenyl protease 2 is 57.7 µM (active); at CAAX prenyl protease 1, 6.59 µM (active); on Trypsin, 10.8 µM (active).

As for `CCC(Sc1nc(N)c(NC(=O)c2ccc(Br)o2)c(O)n1)C(=O)O` (stereo not given), the concentration at half-maximal activity (AC50) was 5.06 µM (active) in test [3] and 17.5 µM (active) in test [4].

Regarding `c1cc(CSc2nnc(-c3ccc4c(c3)OCO4)o2)ccn1`, the AC50 in the test on A-375 [5] and in the test with A-375 [6] was > 35 µM (active) each time.

For the molecule `O=C(CC1C(=O)N(Cc2ccccc2)C(=S)N1CCN1CCOCC1)Nc1ccc(F)cc1` (stereo not given), the IC50 in test [7], in test [9] and in test [10] was > 79.4 µM (inactive) throughout. Besides, the EC50 in test [8] was > 260 µM (inactive).

With `CC(Sc1nnc(CN2CCCC2)n1Cc1ccccc1)C(=O)Nc1ccc(F)cc1` (stereo not given), the EC50 is > 32 µM (inactive) in test [11], > 32 µM (inactive) at Mu-type opioid receptor, 3.33 µM in test [13] and 3.82 µM in test [14]. The IC50 in test [12] is > 32 µM (inactive).

Consider `Cc1ccc(-n2c(C)c([N+](=O)[O-])c3ccc(O)cc32)cc1`, for which the half-inhibitory concentration (IC50) was 1.18 µM (active) in the test on HEK293 [15], > 20 µM (inactive) in the test with HEK293 [16], > 20 µM (inactive) in the test with HEK293 [19] and 1.05 µM (active) in the test with HEK293 [20]. For the same molecule, the EC50 in test [17] is > 20 µM (inactive); in the test on HEK293 [21], 16 µM (active). Moreover, the AC50 in test [18] was < 0.068 µM (active).

Turning to `CCCCCCN1C=CC=C/C1=C\C=C(C#N)C#N`, the concentration at half-maximal activity (AC50) in [22] was 44.1 µM (active).

Consider `O=C(CSc1nc2ccccc2s1)N1c2ccccc2Sc2ccc(Cl)cc21`, for which the EC50 on Cannabinoid receptor 2 [23] was 0.0905 µM (active); in [24], 0.84 µM (active); in [25], 0.748 µM (active). Moreover, the IC50 on Cannabinoid receptor 1 and at Cannabinoid receptor 2 [26] was > 32 µM (inactive) throughout.

As to `O=C(Nc1ccccc1)c1ccccc1Br`, the half-maximal effective concentration (EC50) in [27] is 1.97 µM (active). The concentration at half-maximal activity (AC50) in test [28] is 5.98 µM (active).

For `CCCNC(=O)Cn1nc(-c2ccccc2)c2cc(Cl)ccc21`, the AC50 in the test with Candida albicans is 83.4 µM (active); in the test on NIH3T3, 28.9 µM (active).

The EC50 is the midpoint of the concentration-response curve. For orientation: AC50 means the midpoint of the concentration-response curve, whichever way the signal moves. As usually defined, the IC50 is the midpoint of a concentration-inhibition curve.
